Experiments:
[1] = tested on: metallothionein-II mRNA in Saos-2 cells; assay: Regulation of metallothionein-II mRNA in Saos-2 cells; assay type: cell-based; settings: Homo sapiens

| SMILES | fold induction at 1 µM [1] | melting point [°C] |
| --- | --- | --- |
| Oc1ccc(-c2cc3cc(O)ccc3o2)c(-c2ccccc2)c1 [Example 103, 2-(5-Hydroxy-biphenyl-2-yl)-benzofuran-5-ol] | 9 |  |
| Oc1ccc(-c2cc3cc(O)cc(CBr)c3o2)cc1 [Example 4, 7-Bromomethyl-2-(4-hydroxy-phenyl)-benzofuran-5-ol] |  | 337 to 339 |

— patent publication US7022733B2, “Substituted 2-phenyl benzofurans as estrogenic agents” (Wyeth, priority 2001, dated 2006)
